Molecular target: SIK2 (Homo sapiens (Human), UniProt Q9H0K1)
Experiment: SIK2 Enzymatic Assay Version 2 (High ATP)
Assay type: biochemical
Settings: 3 mM ATP and 200 μM HDAC5tide final, ADP-Glo Max luminescence
How it was run: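 Run at room temperature; SIK2 enzyme at 6 nM (2× final) preincubated with compound 30 min before reaction. ADP formation detected by ADP-Glo Max (2 h reagent, 1 h detection) with luminescence read-out.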

Sequence of SIK2 (Q9H0K1 whole entry, species assumed): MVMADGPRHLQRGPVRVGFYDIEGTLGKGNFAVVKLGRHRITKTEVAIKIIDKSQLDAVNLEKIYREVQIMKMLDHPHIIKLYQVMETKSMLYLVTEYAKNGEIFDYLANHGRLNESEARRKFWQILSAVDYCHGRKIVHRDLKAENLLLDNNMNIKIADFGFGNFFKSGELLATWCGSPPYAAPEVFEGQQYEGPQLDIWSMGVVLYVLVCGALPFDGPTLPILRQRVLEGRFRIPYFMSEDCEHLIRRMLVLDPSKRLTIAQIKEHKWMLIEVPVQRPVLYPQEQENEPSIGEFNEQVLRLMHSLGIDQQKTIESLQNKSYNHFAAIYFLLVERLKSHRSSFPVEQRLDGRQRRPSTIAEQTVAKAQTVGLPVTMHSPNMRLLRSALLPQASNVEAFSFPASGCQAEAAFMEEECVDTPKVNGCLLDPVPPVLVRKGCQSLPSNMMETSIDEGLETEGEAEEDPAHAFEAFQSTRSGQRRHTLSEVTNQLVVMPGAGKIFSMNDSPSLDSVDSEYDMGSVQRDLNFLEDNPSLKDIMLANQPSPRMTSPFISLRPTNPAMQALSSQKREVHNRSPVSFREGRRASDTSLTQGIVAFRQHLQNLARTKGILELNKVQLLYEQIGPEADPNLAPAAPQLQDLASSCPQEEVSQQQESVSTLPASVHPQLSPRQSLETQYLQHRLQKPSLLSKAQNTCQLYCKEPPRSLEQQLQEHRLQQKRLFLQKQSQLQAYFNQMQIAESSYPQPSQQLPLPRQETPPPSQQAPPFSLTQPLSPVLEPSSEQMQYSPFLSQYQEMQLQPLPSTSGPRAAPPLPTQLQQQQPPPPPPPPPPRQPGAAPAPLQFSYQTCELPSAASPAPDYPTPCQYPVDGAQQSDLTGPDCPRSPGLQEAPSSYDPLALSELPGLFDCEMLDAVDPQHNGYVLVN

SMILES	IC50 [nM]
Cc1cc(Nc2cc3cc(-c4c(OC[C@H]5CCN5C)cnn4C)ccn3n2)nc(C(F)F)n1 [Example 102, N-[2-(difluoromethyl)-6-methyl-pyrimidin-4-yl]-5-[2-methyl-4-[[(2R)-1-methylazetidin-2-yl]methoxy]pyrazol-3-yl]pyrazolo[1,5-a]pyridin-2-amine]	< 0.847
CN1CC[C@H](OCc2cnn(C)c2-c2ccn3nc(NC(=O)C4CC4)cc3c2)C1 [Example 464, N-[5-[2-methyl-4-[[(3S)-1-methylpyrrolidin-3-yl]oxymethyl]pyrazol-3-yl]pyrazolo[1,5-a]pyridin-2-yl]cyclopropanecarboxamide]	82.8
Cn1ncc(O[C@@H]2C[C@H]3COC[C@@H](C2)N3)c1-c1ccn2nc(NC(=O)C3CC3)cc2c1 [Example 43, exo-N-[5-[2-methyl-4-[[(1R,5S)-3-oxa-9-azabicyclo[3.3.1]nonan-7-yl]oxy]pyrazol-3-yl]pyrazolo[1,5-a]pyridin-2-yl]cyclopropanecarboxamide]	17.3
Cn1ncc(O[C@H]2C[C@H]3COC[C@@H](C2)N3)c1-c1ccn2nc(NC(=O)C3CC3)cc2c1 [Example 313, N-[5-[2-methyl-4-[[(1R,5S)-3-oxa-9-azabicyclo[3.3.1]nonan-7-yl]oxy]pyrazol-3-yl]pyrazolo[1,5-a]pyridin-2-yl]cyclopropanecarboxamide]	29.6
CN1CC[C@@H]1COc1cnn(C)c1-c1ccn2nc(NC(=O)[C@@H]3C[C@H]3c3ccccc3)cc2c1 (single isomer, unassigned) [Example 157, (1*R,2*R)—N-[5-[2-methyl-4-[((R)1-methylazetidin-2-yl)methoxy]pyrazol-3-yl]pyrazolo[1,5-a]pyridin-2-yl]-2-phenyl-cyclopropanecarboxamide]	11.1
[2H]C([2H])([2H])n1ncc(OC[C@H]2CCN2C)c1-c1ccn2nc(Nc3cc(C)nc(C)n3)cc2c1 [Example 131, N-(2,6-dimethylpyrimidin-4-yl)-5-[4-[[(2R)-1-methylazetidin-2-yl]methoxy]-2-(trideuteriomethyl)pyrazol-3-yl]pyrazolo[1,5-a]pyridin-2-amine]	< 0.847
Cn1ncc(O[C@H]2CNC[C@H]2F)c1-c1ccn2nc(NC(=O)C3CC3)cc2c1 [Example 504, N-[5-[4-[(3S,4R)-4-fluoropyrrolidin-3-yl]oxy-2-methyl-pyrazol-3-yl]pyrazolo[1,5-a]pyridin-2-yl]cyclopropanecarboxamide]	466
Cc1cc(Nc2cc3cc(-c4c(OC[C@H]5CCN5C)cnn4C)ccn3n2)nc(-c2cccnc2)n1 [Example 116, 5-[2-methyl-4-[[(2R)-1-methylazetidin-2-yl]methoxy]pyrazol-3-yl]-N-[6-methyl-2-(3-pyridyl)pyrimidin-4-yl]pyrazolo[1,5-a]pyridin-2-amine]	< 0.847
CN1CC[C@@H]1COc1cnn(C)c1-c1ccn2nc(NC(=O)c3cnn(C)c3)cc2c1 [Example 26, 1-methyl-N-[5-[2-methyl-4-[[(2R)-1-methylazetidin-2-yl]methoxy]pyrazol-3-yl]pyrazolo[1,5-a]pyridin-2-yl]pyrazole-4-carboxamide]	319
COC(C)(C)CN1CC[C@@H]1COc1cnn(C)c1-c1ccn2nc(NC(=O)C3CC3)cc2c1 [Example 435, N-[5-[4-[[(2R)-1-(2-methoxy-2-methyl-propyl)azetidin-2-yl]methoxy]-2-methyl-pyrazol-3-yl]pyrazolo[1,5-a]pyridin-2-yl]cyclopropanecarboxamide]	79.7
CN1CC[C@H](Oc2cnn(C)c2-c2ccn3nc(Nc4cccc(C(F)(F)F)n4)cc3c2)C1 [Example 266, 5-[2-methyl-4-[(3S)-1-methylpyrrolidin-3-yl]oxy-pyrazol-3-yl]-N-[6-(trifluoromethyl)-2-pyridyl]pyrazolo[1,5-a]pyridin-2-amine]	39.5
CCN1CC[C@@H]1COc1cnn(C)c1-c1ccn2nc(Nc3cc(C)nc(C(C)(C)C)n3)cc2c1 [Example 177, N-(2-tert-butyl-6-methyl-pyrimidin-4-yl)-5-[4-[[(2R)-1-ethylazetidin-2-yl]methoxy]-2-methyl-pyrazol-3-yl]pyrazolo[1,5-a]pyridin-2-amine]	1.5
Cc1cc(Nc2cc3cc(-c4c(OC[C@H]5CCN5C)cnn4C)ccn3n2)nn(C)c1=O [Example 152, 2,4-dimethyl-6-[[5-[2-methyl-4-[[(2R)-1-methylazetidin-2-yl]methoxy]pyrazol-3-yl]pyrazolo[1,5-a]pyridin-2-yl]amino]pyridazin-3-one]	< 0.847
C[C@@H]1CNC[C@@H]1Oc1cnn(C)c1-c1ccn2nc(NC(=O)C3CC3)cc2c1 (single isomer, unassigned) [Example 238, (3*R, 4*R)—N-[5-[2-methyl-4-(4-methylpyrrolidin-3-yl)oxy-pyrazol-3-yl]pyrazolo[1,5-a]pyridin-2-yl]cyclopropanecarboxamide]	34.8
Cc1cc(Nc2cc3cc(-c4c(OC[C@H]5CCN5C)cnn4C(F)F)ccn3n2)nc(C)n1 [Example 140, 5-[2-(difluoromethyl)-4-[[(2R)-1-methylazetidin-2-yl]methoxy]pyrazol-3-yl]-N-(2,6-dimethylpyrimidin-4-yl)pyrazolo[1,5-a]pyridin-2-amine]	1.2
CN1C[C@H](F)[C@H](Oc2cnn(C)c2-c2ccn3nc(NC(=O)C4CC4)cc3c2)C1 [Example 415, N-[5-[4-[(3R,4S)-4-fluoro-1-methyl-pyrrolidin-3-yl]oxy-2-methyl-pyrazol-3-yl]pyrazolo[1,5-a]pyridin-2-yl]cyclopropanecarboxamide]	124
COc1nc(C)cc(Nc2cc3cc(-c4c(OC[C@H]5CCN5C)cnn4C)ccn3n2)n1 [Example 146, N-(2-methoxy-6-methyl-pyrimidin-4-yl)-5-[2-methyl-4-[[(2R)-1-methylazetidin-2-yl]methoxy]pyrazol-3-yl]pyrazolo[1,5-a]pyridin-2-amine]	< 0.847
Cc1cc(Nc2cc3cc(-c4c(OC[C@@H](O)C56CC(C5)C6)cnn4C)ccn3n2)nc(C)n1 (stereo in doubt) [Example 306, (*S)-1-(3-bicyclo[1.1.1]pentanyl)-2-[5-[2-[(2,6-dimethylpyrimidin-4-yl)amino]pyrazolo[1,5-a]pyridin-5-yl]-1-methyl-pyrazol-4-yl]oxy-ethanol]	36.1
CCN1CC[C@@H]1COc1cnn(C(F)F)c1-c1ccn2nc(Nc3ccc(C)nn3)cc2c1 [Example 480, 5-[2-(difluoromethyl)-4-[[(2R)-1-ethylazetidin-2-yl]methoxy]pyrazol-3-yl]-N-(6-methylpyridazin-3-yl)pyrazolo[1,5-a]pyridin-2-amine]	10
CCc1cc(Nc2cc3cc(-c4c(OC[C@@H]5CCN5C)cnn4C)ccn3n2)nc(C)n1 [Example 137, N-(6-ethyl-2-methyl-pyrimidin-4-yl)-5-[2-methyl-4-[[(2S)-1-methylazetidin-2-yl]methoxy]pyrazol-3-yl]pyrazolo[1,5-a]pyridin-2-amine]	16.9
Cn1ncc(OCC2NCC23CC3)c1-c1ccn2nc(NC(=O)C3CC3)cc2c1 (racemic) [Example 240, (RS)—N-[5-[4-(5-azaspiro[2.3]hexan-6-ylmethoxy)-2-methyl-pyrazol-3-yl]pyrazolo[1,5-a]pyridin-2-yl]cyclopropanecarboxamide]	28.7
CN1CC[C@@H]1COc1cnn(C)c1-c1ccn2nc(N)cc2c1 [Example 503, 5-[2-methyl-4-[[(2R)-1-methylazetidin-2-yl]methoxy]pyrazol-3-yl]pyrazolo[1,5-a]pyridin-2-amine]	442
Cc1cc(Nc2cc3cc(-c4c(OC[C@@H]5CCN5C)cnn4C)ccn3n2)nc(C)n1 [Example 139, N-(2,6-dimethylpyrimidin-4-yl)-5-[2-methyl-4-[[(2S)-1-methylazetidin-2-yl]methoxy]pyrazol-3-yl]pyrazolo[1,5-a]pyridin-2-amine]	19.7
Cc1cc(Nc2cc3cc(-c4c(OCC5(F)CCNC5)cnn4C(F)F)ccn3n2)nc(C)n1 (racemic) [Example 101, (RS)-5-[2-(difluoromethyl)-4-[(3-fluoropyrrolidin-3-yl)methoxy]pyrazol-3-yl]-N-(2,6-dimethylpyrimidin-4-yl)pyrazolo[1,5-a]pyridin-2-amine]	7.2
Cc1onc(OC[C@H]2C[C@H](N)C2)c1-c1ccn2nc(NC(=O)C3CC3)cc2c1 [Example 387, N-[5-[3-[(3-aminocyclobutyl)methoxy]-5-methyl-isoxazol-4-yl]pyrazolo[1,5-a]pyridin-2-yl]cyclopropanecarboxamide]	85.8
CCN1CC[C@@H]1COc1cnn(C)c1-c1ccn2nc(NC(=O)C3CC3)cc2c1 [Example 52, N-[5-[4-[[(2R)-1-ethylazetidin-2-yl]methoxy]-2-methyl-pyrazol-3-yl]pyrazolo[1,5-a]pyridin-2-yl]cyclopropanecarboxamide]	3.6
CN1C[C@@H](F)[C@H](OCc2cnn(C)c2-c2ccn3nc(NC(=O)C4CC4)cc3c2)C1 [Example 467, N-[5-[4-[[(3R,4R)-4-fluoro-1-methyl-pyrrolidin-3-yl]oxymethyl]-2-methyl-pyrazol-3-yl]pyrazolo[1,5-a]pyridin-2-yl]cyclopropanecarboxamide]	113
CN1CC(F)(COc2cnn(C)c2-c2ccn3nc(NC(=O)C4CC4)cc3c2)C1 [Example 405, N-[5-[4-[(3-fluoro-1-methyl-azetidin-3-yl)methoxy]-2-methyl-pyrazol-3-yl]pyrazolo[1,5-a]pyridin-2-yl]cyclopropanecarboxamide]	98.3
CCCn1ncc(OC[C@@H]2CCN(C)C2)c1-c1ccn2nc(NC(=O)C3CC3)cc2c1 [Example 490, N-[5-[4-[[(3R)-1-methylpyrrolidin-3-yl]methoxy]-2-propyl-pyrazol-3-yl]pyrazolo[1,5-a]pyridin-2-yl]cyclopropanecarboxamide]	7330
CCCN1CC[C@@H]1COc1cnn(C)c1-c1ccn2nc(NC(=O)C3CC3)cc2c1 [Example 246, N-[5-[2-methyl-4-[[(2R)-1-propylazetidin-2-yl]methoxy]pyrazol-3-yl]pyrazolo[1,5-a]pyridin-2-yl]cyclopropanecarboxamide]	1.6
